The results in this text go back to patent US20260327234A1, “NOVEL COMPOUNDS AS CYP11A1 INHIBITORS AND METHODS OF USE THEREOF” (Shenzhen Ionova Life Science Co., Ltd., priority 2023, published 2026).

Structures are written as SMILES.

The target in experiment [1] is T1, testosterone (T) production in NCI-H295R cells (Homo sapiens, UniProt P05108).
T1 construct: testosterone measured by LC-MS/MS as downstream steroid
T1 sequence (P05108 40-521): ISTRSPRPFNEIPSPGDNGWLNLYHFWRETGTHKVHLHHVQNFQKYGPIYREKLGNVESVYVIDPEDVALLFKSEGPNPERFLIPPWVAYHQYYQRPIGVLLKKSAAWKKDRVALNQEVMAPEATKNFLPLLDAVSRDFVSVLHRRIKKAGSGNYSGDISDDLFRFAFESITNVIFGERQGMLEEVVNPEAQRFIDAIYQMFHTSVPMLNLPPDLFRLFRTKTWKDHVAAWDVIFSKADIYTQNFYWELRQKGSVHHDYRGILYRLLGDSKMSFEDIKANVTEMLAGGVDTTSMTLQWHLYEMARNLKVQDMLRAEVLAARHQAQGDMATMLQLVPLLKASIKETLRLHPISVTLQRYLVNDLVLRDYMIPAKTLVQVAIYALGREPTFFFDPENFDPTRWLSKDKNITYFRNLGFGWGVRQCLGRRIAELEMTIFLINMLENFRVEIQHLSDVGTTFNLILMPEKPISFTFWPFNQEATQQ
The experiment in a line: H295R Steroid Biosynthesis Inhibition Assay - inhibition of testosterone (T) production in NCI-H295R cells. It is filed as cell-based. The settings on record: 48 h, LC-MS/MS, read-out: Inh. of T IC50. On the procedure: (§1) Steroid Biosynthesis Inhibition by test compounds in NCI-H295R cells (ATCC) was studied by measuring the cellular production of pregnenolone (P) catalyzed by CYP11A1 and the downstream steroid, testosterone (T). Cells were cultured in Dulbecco's modified eagle's medium F12 (DMEM/F12) with phenol red (Gibco, Cat. No. 11330032) supplemented with 2% UltroserG (Pall, Cat. No. 15950-017, USA), 1% ITS-Premix and 1% penicillin and streptomycin (Hyclone, Cat. No. SV30010, USA). Prior to the assay, cells were thawed and passed 4 times. The maximal passage number used for the assay was 10. For this assay, DMEM/F12 without phenol red supplemented with 10% charcoal-stripped fetal bovine serum (VivaCell, Cat. No. C3830-0500, USA) were used. In a 96-well plate, 60,000 cells/well were plated (90 μL/well) and incubated for 24 h. Test compounds, diluted in a serial dilution ranging from 1000 nM to 0.15 nM in the assay medium, were added to the plate. After 48 h of incubation, solution from each well were collected and transferred to individual 1.5 mL centrifuge tubes, and then 5 ng/mL deuterated testosterone (D3-testosterone) and 50 ng/mL deuterated pregnenolone (D4-pregnenolone) in 200 μL acetonitrile were added. After vigorously mixing for 5 min, the mixture was centrifuged at 12,700 rpm for 15 min. An aliquot of 250 μL supernatant was collected and dried under N2 stream. After addition of 150 μL Methanol:water (1:1, v/v) to the dried product, 50 μL sample of this solution was injected into the LC-MS/MS system for analysis.
(§2) The half-maximal inhibitory concentration (IC50) for steroid biosynthesis inhibition was determined by curve-fitting with the 4-variable inhibitory dose response equation using GraphPad Prism software.
(§3) Testosterone and pregnenolone were analyzed using Shimadzu LC30AD HPLC system (Shimadzu, Kyoto, Japan) coupled with AB SCIEX Qtrap 5500 triple quadrupole mass spectrometer (AB Sciex, Framingham, MA, USA) via ESI interface in the positive ionization mode. An ACQUITY UPLC BEH Shield RP18 column (1.7 μm, 2.1×50 mm, Milford, MA, USA) maintained at 40° C. was used to separate analytes and IS form the sample matrix.
(§4) The mobile phase was a mixture of 10 mM ammonium acetate in water containing 0.2% formic acid (A) and methanol containing 0.2% formic acid (B) at a flow rate of 0.6 mL/min. The gradient program was set as follows: from 0 min to 0.5 min, 60% B; from 0.5 min to 3.5 min, 90% B; from 3.5 min to 4.5 min, 90% B; from 4.51 min to 5.0 min, 60% B. The injection volume was […].
(§5) The MS/MS parameters were set as follows: ion spray voltage, 5500 V; curtain gas, 35 psi; Gas 1, 55 psi; Gas 2: 55 psi; temperature, […]. The optimized multiple reaction monitoring (MRM) fragmentation transitions and MS parameters of each analyte are summarized in Table 1.

The target of another experiment is T2, CYP11A1 (Homo sapiens, UniProt P05108).
T2 construct: measuring the cellular production of pregnenolone (P) catalyzed by CYP11A1; host or cells: NCI-H295R
T2 sequence (P05108 40-521): T1 sequence (P05108 40-521)
The experiment in a line: H295R Steroid Biosynthesis Inhibition Assay - inhibition of pregnenolone (P) production catalyzed by CYP11A1 in NCI-H295R cells. Type of experiment: cell-based. The settings on record: 48 h, LC-MS/MS, read-out: Inh. of P IC50. The procedure: as §1, §2, §3, §4, §5

As for `COc1nc(C2CCN(S(C)(=O)=O)CC2)nc2ccc(CN3Cc4ccccc4C3)cc12` [Compound 85], the IC50 (in experiment [1]; at CYP11A1) was ≤ 40 nM each time.
On to `O=c1cc(CN2Cc3ccccc3C2)oc2cc(C3C4CC(O)CC43)oc12` (stereo not drawn) [Compound 39], for which the IC50 (in experiment [1]; on CYP11A1) was ≤ 40 nM in each case.
`CS(=O)(=O)N1C[C@@H]2[C@H](C1)[C@H]2c1cnc2cc(CN3Cc4ccccc4C3)ccc2n1` [Compound 86]: the IC50 is 41 to 100 nM in experiment [1] and ≤ 40 nM on CYP11A1.
The corresponding values for `O[C@H]1CC[C@H](c2nc3cc(CN4Cc5ccccc5C4)ccc3o2)CC1` [Compound 127] are ≤ 40 nM and ≤ 40 nM.
Taken in the same sequence, the figures for `CCOC(=O)N1CCC(c2cnc3cc(CN4Cc5ccccc5C4)ccc3n2)CC1` [Compound 111] were ≤ 40 nM and ≤ 40 nM.
The corresponding values for `CS(=O)(=O)N1CCC(c2cc3oc(CN4Cc5ccccc5C4)cc(=O)c3o2)CC1` [Compound 14] are ≤ 40 nM and ≤ 40 nM.
In the case of `CNS(=O)(=O)c1ccc(-c2cc3oc(CN4Cc5ccccc5C4)cc(=O)c3o2)cc1` [Compound 51], the IC50 (in experiment [1]; at CYP11A1) was ≤ 40 nM throughout.
Turning to `CS(=O)(=O)Nc1ccc(-c2cc3oc(CN4Cc5ccccc5C4)cc(=O)c3o2)cc1` [Compound 52], the IC50 (in experiment [1]; on CYP11A1) was ≤ 40 nM in each case.
For the compound `CCS(=O)(=O)N1CCC(c2cnc3cc(CN4Cc5ccccc5C4)ccc3n2)CC1` [Compound 91], the IC50 (in experiment [1]; on CYP11A1) was ≤ 40 nM in each case.
As to `CS(=O)(=O)N1CCC(c2cc3oc(CN4CCc5ccccc5C4)cc(=O)c3o2)CC1` [Compound 21], the IC50 is ≥ 101 nM in experiment [1] and ≥ 100 nM on CYP11A1.
Taken in the same sequence, the figures for `CS(=O)(=O)N1CCC(c2cnc3cc(CN4Cc5ccc(C(F)(F)F)cc5C4)ccc3n2)CC1` [Compound 90] were ≤ 40 nM and ≤ 40 nM.
Taken in the same sequence, the figures for `CS(=O)(=O)N1CCC(c2cnc3cc(CN4Cc5ccc(OC(F)F)cc5C4)ccc3n2)CC1` [Compound 89] were ≤ 40 nM and ≤ 40 nM.
In the case of `O=C(c1ncccn1)N1CCC(c2cnc3cc(CN4Cc5ccccc5C4)ccc3n2)CC1` [Compound 105], the half-maximal inhibitory concentration (IC50) is ≥ 101 nM in experiment [1] and 40 to 100 nM at CYP11A1.
With `CS(=O)(=O)N1C[C@@H]2[C@H](C1)[C@H]2c1ccc2cc(CN3Cc4ccccc4C3)ccc2n1` [Compound 56, 6-(isoindolin-2-ylmethyl)-2-((1R,5S,6r)-3-(methylsulfonyl)-3-azabicyclo[3.1.0]hexan-6-yl)quinoline], the 50% inhibitory concentration (IC50) (in experiment [1]; on CYP11A1) was ≤ 40 nM in each case.
With `CS(=O)(=O)N1CCC(c2ccc3nc(CN4Cc5ccccc5C4)cc(=O)n3c2)CC1` [Compound 59], the IC50 (in experiment [1]; at CYP11A1) was ≤ 40 nM each time.
In the case of `CS(=O)(=O)N1CCC(c2ccc3oc(CN4Cc5ccccc5C4)cc(=O)c3c2)CC1` [Compound 57], the IC50 (in experiment [1]; at CYP11A1) was ≤ 40 nM each time.
Turning to `CS(=O)(=O)N1CCC(c2cnc3cc(CN4Cc5ccccc5C4)ccc3n2)CC1` [Compound 55, 6-(isoindolin-2-ylmethyl)-2-(1-(methylsulfonyl)piperidin-4-yl)quinoxaline], the IC50 (in experiment [1]; on CYP11A1) was ≤ 40 nM each time.
For `O=C(c1ccccc1)N1CCC(c2cnc3cc(CN4Cc5ccccc5C4)ccc3n2)CC1` [Compound 104], the IC50 in experiment [1] was ≥ 101 nM; at CYP11A1 it was 40 to 100 nM.
In the case of `O=c1cc(CN2Cc3ccccc3C2)oc2cc(C3CC4(CC(O)C4)C3)oc12` (stereo not drawn) [Compound 24], the IC50 (in experiment [1]; at CYP11A1) was ≤ 40 nM in each case.
Take `C[C@]1(c2cc3oc(CN4Cc5ccccc5C4)cc(=O)c3o2)CC[C@H](O)CC1` [Compound 41]: the concentration for half-maximal inhibition (IC50) (in experiment [1]; at CYP11A1) was ≤ 40 nM throughout.
Regarding `Cn1ccc(C(=O)N2CCC(c3cnc4cc(CN5Cc6ccccc6C5)ccc4n3)CC2)n1` [Compound 106], the IC50 was ≥ 101 nM in experiment [1] and ≤ 40 nM at CYP11A1.
As for `O=c1cc(CN2Cc3ccccc3C2)oc2cc([C@H]3CC[C@@](O)(C(F)(F)F)CC3)oc12` [Compound 37], the IC50 was ≤ 40 nM in experiment [1] and 40 to 100 nM on CYP11A1.
The corresponding values for `CS(=O)(=O)N1CCC(c2cnc3cc(CN4Cc5ccccc5C4)ccc3c2)CC1` [Compound 69] are ≤ 40 nM and ≤ 40 nM.
As to `O=S(=O)(c1ccccc1)N1CCC(c2cnc3cc(CN4Cc5ccccc5C4)ccc3n2)CC1` [Compound 98], the IC50 (in experiment [1]; on CYP11A1) was ≤ 40 nM throughout.
Turning to `O=c1cc(CN2Cc3ccccc3C2)oc2cc([C@H]3CC[C@@]4(O)CC4C3)oc12` (stereo partly drawn) [Compound 40], the IC50 (in experiment [1]; on CYP11A1) was ≤ 40 nM in each case.
As for `CNS(=O)(=O)N1CCC(c2cnc3cc(CN4Cc5ccccc5C4)ccc3n2)CC1` [Compound 100], the half-maximal inhibitory concentration (IC50) (in experiment [1]; at CYP11A1) was ≤ 40 nM throughout.
Turning to `CC(=O)N1CCC(c2cnc3cc(CN4Cc5ccccc5C4)ccc3n2)CC1` [Compound 101], the figures for the IC50 (in experiment [1]; on CYP11A1) were ≥ 101 nM and ≥ 100 nM, respectively.
The corresponding values for `CS(=O)(=O)N1CCC(c2cc3oc(CN4Cc5ccc(C(F)(F)F)cc5C4)cc(=O)c3o2)CC1` [Compound 20] are ≤ 40 nM and ≤ 40 nM.
Taken in the same sequence, the figures for `CS(=O)(=O)N1CCC(c2cc3cc(CN4Cc5ccccc5C4)ccc3o2)CC1` [Compound 126] were ≤ 40 nM and ≤ 40 nM.
The corresponding values for `CC(C)(C)OC(=O)N1CCC(c2cnc3cc(CN4Cc5ccccc5C4)ccc3n2)CC1` [Compound 113] are 41 to 100 nM and 40 to 100 nM.
Turning to `Cc1nc(C2CCN(S(C)(=O)=O)CC2)nc2ccc(CN3CCn4cccc4C3)cc12` [Compound 84], the half-inhibitory concentration (IC50) was ≥ 101 nM in experiment [1] and ≥ 100 nM at CYP11A1.
The corresponding values for `O=c1cc(CN2Cc3ccccc3C2)oc2cc(C34CCC(O)(CC3)CC4)oc12` [Compound 34] are ≤ 40 nM and ≤ 40 nM.
Consider `CS(=O)(=O)N[C@H]1CC[C@H](c2cc3oc(CN4Cc5ccccc5C4)cc(=O)c3o2)CC1` [Compound 44], for which the IC50 (in experiment [1]; on CYP11A1) was ≤ 40 nM in each case.
`COC(=O)N1CCC(c2cnc3cc(CN4Cc5ccccc5C4)ccc3n2)CC1` [Compound 110]: the IC50 (in experiment [1]; on CYP11A1) was ≤ 40 nM throughout.
Consider `COc1ccc2c(c1)CN(Cc1cc(=O)c3oc(C4CCN(S(C)(=O)=O)CC4)cc3o1)C2` [Compound 19], for which the IC50 (in experiment [1]; on CYP11A1) was ≤ 40 nM each time.
Regarding `Cn1ccnc1C(=O)N1CCC(c2cnc3cc(CN4Cc5ccccc5C4)ccc3n2)CC1` [Compound 108], the IC50 in experiment [1] was ≥ 101 nM; on CYP11A1, 40 to 100 nM.
Take `CS(=O)(=O)N1CCC(COc2ccc(CN3Cc4ccccc4C3)c3ccccc23)CC1` [Compound 7]: the IC50 (in experiment [1]; at CYP11A1) was ≤ 40 nM in each case.
Turning to `CS(=O)(=O)N1CCC(c2ccc3nc(CN4Cc5ccccc5C4)ccc3n2)CC1` [Compound 79], the half-maximal inhibitory concentration (IC50) (in experiment [1]; at CYP11A1) was ≤ 40 nM in each case.
As for `Cc1ccc2c(c1)CN(Cc1cc(=O)c3oc(C4CCN(S(C)(=O)=O)CC4)cc3o1)C2` [Compound 18], the IC50 (in experiment [1]; at CYP11A1) was ≤ 40 nM throughout.
